Key:
Format in all cases: biochemical
Stk6 = target: T1, Stk6 (Homo sapiens, UniProt O14965); test: Z'-Lyte FRET kinase assay (Invitrogen), Stk6; details: read-out: IC50, activity toward kinase Stk6
T1 construct: purchased Invitrogen (Carlsbad, Calif.), screening service
T1 sequence (O14965 1-403): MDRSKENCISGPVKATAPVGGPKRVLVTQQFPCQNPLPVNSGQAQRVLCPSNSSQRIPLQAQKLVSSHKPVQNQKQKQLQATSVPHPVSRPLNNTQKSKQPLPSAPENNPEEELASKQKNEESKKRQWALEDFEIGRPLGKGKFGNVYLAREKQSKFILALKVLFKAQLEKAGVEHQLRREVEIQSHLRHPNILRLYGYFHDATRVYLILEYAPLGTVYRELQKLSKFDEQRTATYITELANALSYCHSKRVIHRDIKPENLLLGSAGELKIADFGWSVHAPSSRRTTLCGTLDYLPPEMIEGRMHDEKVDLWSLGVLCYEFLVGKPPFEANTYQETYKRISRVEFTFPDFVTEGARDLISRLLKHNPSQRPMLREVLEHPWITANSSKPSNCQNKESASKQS

Ret = target: T2, Ret (Homo sapiens, UniProt P07949); test: AlphaScreen kinase assay, Ret; details: read-out: IC50, activity toward kinase Ret
T2 construct: P1378.pET-SF BI-PTP RET H661-R1012 HIS; made in house
T2 sequence (P07949 with tags, fused parts or gaps): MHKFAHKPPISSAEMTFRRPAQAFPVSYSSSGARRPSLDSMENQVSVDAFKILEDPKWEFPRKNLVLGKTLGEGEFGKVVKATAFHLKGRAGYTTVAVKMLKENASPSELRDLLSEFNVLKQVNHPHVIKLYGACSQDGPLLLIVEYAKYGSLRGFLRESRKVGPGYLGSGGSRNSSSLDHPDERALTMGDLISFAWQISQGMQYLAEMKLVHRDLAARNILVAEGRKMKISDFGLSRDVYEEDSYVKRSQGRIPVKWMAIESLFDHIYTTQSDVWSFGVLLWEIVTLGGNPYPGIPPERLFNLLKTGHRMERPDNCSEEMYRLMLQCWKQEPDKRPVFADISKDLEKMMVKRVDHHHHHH

Kit = target: T3, Kit (Homo sapiens, UniProt P10721); test: AlphaScreen kinase assay, Kit; details: read-out: IC50, activity toward kinase Kit
T3 construct: P1332.N6 BI PTP KIT M552-K948-X COD; His6 (N); made in house; host or cells: E. coli (PTP1B co-expressed)
T3 sequence (P10721 with tags, fused parts or gaps): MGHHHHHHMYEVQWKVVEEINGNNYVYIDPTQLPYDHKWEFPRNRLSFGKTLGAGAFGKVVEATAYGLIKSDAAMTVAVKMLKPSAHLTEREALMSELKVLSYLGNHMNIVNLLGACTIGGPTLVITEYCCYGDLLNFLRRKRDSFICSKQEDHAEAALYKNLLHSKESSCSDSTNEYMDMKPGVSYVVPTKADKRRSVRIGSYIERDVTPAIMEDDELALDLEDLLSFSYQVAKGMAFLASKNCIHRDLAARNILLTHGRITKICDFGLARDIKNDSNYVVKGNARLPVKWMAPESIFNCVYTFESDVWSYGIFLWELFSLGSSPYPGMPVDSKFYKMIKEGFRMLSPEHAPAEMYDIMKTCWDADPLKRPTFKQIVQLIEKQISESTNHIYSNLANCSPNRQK

Met = target: T4, Met (Homo sapiens, UniProt P08581); test: AlphaScreen kinase assay, Met; details: read-out: IC50, activity toward kinase Met
T4 construct: P1818.pETN6 BI-PTP MET G1056-G1364-X WT; His6 (N); made in house; host or cells: E. coli (PTP1B co-expressed)
Summary of the method: (§1)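 Biotinylated peptide substrate phosphorylation detected by AlphaScreen with phospho-specific antibody acceptor beads and streptavidin donor beads. Compounds tested as 8-point 1:3 serial dilutions from 20 mM DMSO stocks.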

Kdr = target: T5, Kdr (Homo sapiens, UniProt P35968); test: Z'-Lyte FRET kinase assay (Invitrogen), Kdr; details: read-out: IC50, activity toward kinase Kdr
T5 construct: purchased Invitrogen (assay run by Invitrogen)
T5 sequence (P35968 20-1356): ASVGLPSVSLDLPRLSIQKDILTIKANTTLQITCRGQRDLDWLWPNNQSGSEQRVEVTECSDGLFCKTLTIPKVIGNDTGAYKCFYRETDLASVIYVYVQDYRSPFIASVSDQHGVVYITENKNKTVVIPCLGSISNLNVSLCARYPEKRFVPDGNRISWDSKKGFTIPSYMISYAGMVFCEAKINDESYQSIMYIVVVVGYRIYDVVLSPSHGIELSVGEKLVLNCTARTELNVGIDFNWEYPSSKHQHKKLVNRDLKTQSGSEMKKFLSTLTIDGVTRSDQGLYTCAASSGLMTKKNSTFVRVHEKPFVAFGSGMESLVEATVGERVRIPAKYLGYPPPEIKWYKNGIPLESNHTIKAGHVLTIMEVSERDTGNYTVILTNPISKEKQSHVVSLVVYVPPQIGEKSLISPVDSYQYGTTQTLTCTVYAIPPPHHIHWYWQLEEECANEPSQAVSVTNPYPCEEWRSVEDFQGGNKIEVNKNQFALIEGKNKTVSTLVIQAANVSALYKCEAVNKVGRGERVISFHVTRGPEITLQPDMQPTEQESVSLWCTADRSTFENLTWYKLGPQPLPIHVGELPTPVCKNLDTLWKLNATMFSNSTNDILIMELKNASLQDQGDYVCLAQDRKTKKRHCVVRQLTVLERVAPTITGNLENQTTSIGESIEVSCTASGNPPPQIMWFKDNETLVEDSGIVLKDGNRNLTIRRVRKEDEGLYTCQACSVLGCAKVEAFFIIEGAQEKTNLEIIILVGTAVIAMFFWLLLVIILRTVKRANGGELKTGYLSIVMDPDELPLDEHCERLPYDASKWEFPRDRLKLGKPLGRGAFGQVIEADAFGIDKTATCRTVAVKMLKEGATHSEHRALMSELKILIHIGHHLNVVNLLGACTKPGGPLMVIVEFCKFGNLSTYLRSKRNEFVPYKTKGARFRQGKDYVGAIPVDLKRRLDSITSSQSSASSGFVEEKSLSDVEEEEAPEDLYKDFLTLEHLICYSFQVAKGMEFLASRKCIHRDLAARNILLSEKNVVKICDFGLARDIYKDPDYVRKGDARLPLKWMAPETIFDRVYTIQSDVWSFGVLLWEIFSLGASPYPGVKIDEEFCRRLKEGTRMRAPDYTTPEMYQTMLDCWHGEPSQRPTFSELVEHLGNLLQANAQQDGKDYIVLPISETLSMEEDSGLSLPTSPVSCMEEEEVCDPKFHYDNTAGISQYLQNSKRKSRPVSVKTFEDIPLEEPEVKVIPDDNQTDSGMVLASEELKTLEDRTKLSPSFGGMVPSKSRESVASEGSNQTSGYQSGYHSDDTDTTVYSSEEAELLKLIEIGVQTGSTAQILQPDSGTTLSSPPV

Flt4 = target: T6, Flt4 (Homo sapiens, UniProt P35916); test: AlphaScreen kinase assay, Flt4; details: read-out: IC50, activity toward kinase Flt4
T6 construct: purchased ProQinase GmbH (Freiburg, Germany)
T6 sequence (P35916 25-1363): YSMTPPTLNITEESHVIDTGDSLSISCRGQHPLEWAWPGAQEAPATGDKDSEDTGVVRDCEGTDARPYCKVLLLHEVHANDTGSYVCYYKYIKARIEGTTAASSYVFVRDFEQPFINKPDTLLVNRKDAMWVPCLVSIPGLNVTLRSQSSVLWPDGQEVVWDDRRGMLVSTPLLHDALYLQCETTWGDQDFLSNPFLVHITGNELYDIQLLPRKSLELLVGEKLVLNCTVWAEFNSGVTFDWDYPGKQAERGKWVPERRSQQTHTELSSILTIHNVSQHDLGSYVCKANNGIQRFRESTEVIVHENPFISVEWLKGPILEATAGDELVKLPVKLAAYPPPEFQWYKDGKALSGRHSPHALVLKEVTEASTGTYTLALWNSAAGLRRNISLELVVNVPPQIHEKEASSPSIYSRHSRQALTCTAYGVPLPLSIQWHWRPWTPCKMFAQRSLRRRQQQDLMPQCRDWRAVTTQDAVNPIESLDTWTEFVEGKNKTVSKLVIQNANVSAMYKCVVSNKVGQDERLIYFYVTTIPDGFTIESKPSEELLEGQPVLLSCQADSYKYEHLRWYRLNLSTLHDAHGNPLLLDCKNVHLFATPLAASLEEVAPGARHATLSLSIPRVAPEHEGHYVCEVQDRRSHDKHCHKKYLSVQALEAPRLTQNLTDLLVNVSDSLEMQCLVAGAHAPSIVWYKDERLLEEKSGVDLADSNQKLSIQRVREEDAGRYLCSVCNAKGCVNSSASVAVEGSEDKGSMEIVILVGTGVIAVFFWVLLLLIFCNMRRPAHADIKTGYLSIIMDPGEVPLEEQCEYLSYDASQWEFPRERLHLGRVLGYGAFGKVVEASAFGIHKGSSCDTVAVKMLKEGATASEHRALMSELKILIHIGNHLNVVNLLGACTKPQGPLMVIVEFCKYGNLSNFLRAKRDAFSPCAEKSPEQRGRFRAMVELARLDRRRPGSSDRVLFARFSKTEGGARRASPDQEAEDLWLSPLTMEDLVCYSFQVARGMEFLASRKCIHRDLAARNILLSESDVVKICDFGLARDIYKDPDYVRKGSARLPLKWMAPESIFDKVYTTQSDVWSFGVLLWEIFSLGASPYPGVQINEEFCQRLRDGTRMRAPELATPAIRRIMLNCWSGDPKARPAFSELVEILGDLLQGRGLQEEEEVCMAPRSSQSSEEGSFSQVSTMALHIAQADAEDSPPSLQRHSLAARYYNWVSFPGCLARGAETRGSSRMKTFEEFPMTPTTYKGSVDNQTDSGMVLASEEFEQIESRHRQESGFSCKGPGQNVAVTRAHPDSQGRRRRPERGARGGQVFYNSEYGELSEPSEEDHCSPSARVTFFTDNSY
Excerpt: AlphaScreen assay was used to screen additional kinases. The assay is similarly dependent on the phosphorylation of a peptide substrate. In this assay, an antibody that recognizes phosphorylated substrate is bound to an acceptor bead. The peptide substrate is attached to biotin, which binds to a donor head that contains streptavidin. Thus phosphorylated substrate is bound by antibody and streptavidin, bringing the donor and acceptor heads into close proximity when kinase is not inhibited. The donor produces singlet oxygen which results in emission from the acceptor when they are in close proximity. Conversely, when kinase is inhibited, the donor and acceptor beads are not associated and the emission from the acceptor is reduced.
AlphaScreen assays were done using compounds dissolved in DMSO to a concentration of 20 mM. The compounds were diluted accordingly to the desired final concentrations in each sample well, using 1:3 serial dilution for a total of 8 concentration points.

Jnk3 = target: T7, Jnk3 (Homo sapiens, UniProt P53779); test: AlphaScreen kinase assay, Jnk3; details: read-out: IC50, activity toward kinase Jnk3
T7 construct: purchased Upstate Biotechnology

MAP2K1 = target: T8, MAP2K1 (Homo sapiens, UniProt Q02750); test: Z'-Lyte FRET kinase assay (Invitrogen), MAP2K1; details: read-out: IC50, activity toward kinase MAP2K1
T8 construct: purchased Invitrogen (assay run by Invitrogen)
T8 sequence (Q02750 whole entry): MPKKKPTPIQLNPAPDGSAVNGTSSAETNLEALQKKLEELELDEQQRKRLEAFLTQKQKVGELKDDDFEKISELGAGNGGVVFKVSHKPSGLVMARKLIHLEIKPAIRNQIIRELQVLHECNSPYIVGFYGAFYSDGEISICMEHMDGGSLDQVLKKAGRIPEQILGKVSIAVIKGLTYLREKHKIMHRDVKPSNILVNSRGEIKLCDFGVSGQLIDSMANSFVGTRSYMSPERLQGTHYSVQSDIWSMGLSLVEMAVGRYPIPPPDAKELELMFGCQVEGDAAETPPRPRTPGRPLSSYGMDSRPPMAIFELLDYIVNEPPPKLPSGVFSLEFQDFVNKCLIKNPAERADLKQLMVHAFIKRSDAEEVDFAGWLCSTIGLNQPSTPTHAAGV

FGFR1 = target: T9, FGFR1 (Homo sapiens, UniProt P11362, C488A/C584S); test: AlphaScreen kinase assay, FGFR1; details: read-out: IC50, activity toward kinase FGFR
T9 construct: P1351.pET N6 BI-PTP FGFR A458-E765-X C488A, C584S; made in house; host or cells: E. coli (PTP1B co-expressed)
T9 sequence (P11362 458-765 C488A/C584S): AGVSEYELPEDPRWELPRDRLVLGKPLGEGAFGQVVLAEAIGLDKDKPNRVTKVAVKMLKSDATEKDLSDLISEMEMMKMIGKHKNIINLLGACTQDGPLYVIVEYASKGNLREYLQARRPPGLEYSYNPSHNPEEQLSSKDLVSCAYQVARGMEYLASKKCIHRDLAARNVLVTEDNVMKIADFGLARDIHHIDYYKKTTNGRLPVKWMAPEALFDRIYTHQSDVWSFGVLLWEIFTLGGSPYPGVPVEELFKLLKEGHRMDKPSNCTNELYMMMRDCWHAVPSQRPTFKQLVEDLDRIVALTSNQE
Protocol: AlphaScreen assays were done using compounds dissolved in DMSO to a concentration of 20 mM. The compounds were diluted accordingly to the desired final concentrations in each sample well, using 1:3 serial dilution for a total of 8 concentration points. Plates were prepared such that each kinase reaction is 20 μl in 1× kinase buffer, 5% DMSO and 10 μM ATP. After incubation of the kinase reaction for 1 hour at room temperature, 5 μl of donor beads in stop buffer (50 mM EDTA in 1× kinase buffer) was added, the sample was mixed and incubated for 20 minutes at room temperature before adding 5 μl of acceptor beads in stop buffer. The samples were incubated for 60 minutes at room temperature and the signal per well was read on AlphaQuest reader.

Src = target: T10, Src (Homo sapiens, UniProt P12931); test: AlphaScreen kinase assay, Src; details: read-out: IC50, activity toward kinase Src
T10 construct: P1144. pET-N6 BI-PTP SRC V86-L536-X; made in house

MAP4K4 = MAP4K4 (Homo sapiens, UniProt O95819); test: AlphaScreen kinase assay, MAP4K4; details: read-out: IC50, activity toward kinase MAP4K4
Fms = target: T11, Fms (Homo sapiens, UniProt P07333); test: AlphaScreen kinase assay, Fms; details: read-out: IC50, activity toward kinase Fms
T11 construct: purchased Upstate Biotechnology
T11 sequence (P07333 20-972): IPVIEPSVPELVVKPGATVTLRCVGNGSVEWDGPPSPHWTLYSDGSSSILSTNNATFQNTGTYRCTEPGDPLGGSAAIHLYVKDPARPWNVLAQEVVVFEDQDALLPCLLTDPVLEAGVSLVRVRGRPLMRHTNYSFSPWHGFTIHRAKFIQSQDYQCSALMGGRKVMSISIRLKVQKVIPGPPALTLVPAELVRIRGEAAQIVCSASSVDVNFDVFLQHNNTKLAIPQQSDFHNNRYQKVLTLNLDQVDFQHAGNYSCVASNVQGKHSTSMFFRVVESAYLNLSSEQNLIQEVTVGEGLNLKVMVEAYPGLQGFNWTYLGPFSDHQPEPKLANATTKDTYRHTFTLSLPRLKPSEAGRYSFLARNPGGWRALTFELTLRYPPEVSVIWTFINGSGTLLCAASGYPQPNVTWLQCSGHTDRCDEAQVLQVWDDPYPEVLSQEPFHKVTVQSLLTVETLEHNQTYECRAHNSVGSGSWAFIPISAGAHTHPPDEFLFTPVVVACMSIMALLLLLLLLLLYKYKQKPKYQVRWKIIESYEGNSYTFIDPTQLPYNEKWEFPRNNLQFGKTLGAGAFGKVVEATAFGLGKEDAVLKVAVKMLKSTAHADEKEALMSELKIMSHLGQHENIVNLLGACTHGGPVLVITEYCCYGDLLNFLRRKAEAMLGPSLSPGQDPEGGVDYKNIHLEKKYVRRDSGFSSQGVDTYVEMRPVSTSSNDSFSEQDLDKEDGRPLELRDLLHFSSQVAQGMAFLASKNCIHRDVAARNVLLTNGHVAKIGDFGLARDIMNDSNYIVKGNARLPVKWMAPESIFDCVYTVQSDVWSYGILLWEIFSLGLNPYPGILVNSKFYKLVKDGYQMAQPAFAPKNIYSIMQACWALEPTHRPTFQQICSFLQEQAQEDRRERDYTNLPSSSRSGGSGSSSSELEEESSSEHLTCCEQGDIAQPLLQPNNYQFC

Btk = target: T12, Btk (Homo sapiens, UniProt Q06187); test: Z'-Lyte FRET kinase assay (Invitrogen), Btk; details: read-out: IC50, activity toward kinase Btk
T12 construct: purchased Invitrogen (assay run by Invitrogen)

Yes = target: T13, Yes (Homo sapiens, UniProt P07947); test: Z'-Lyte FRET kinase assay (Invitrogen), Yes; details: read-out: IC50, activity toward kinase Yes
T13 construct: purchased Invitrogen (Carlsbad, Calif.), screening service
Summary of the method: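 Read-out is the coumarin-to-fluorescein emission ratio, which rises when unphosphorylated peptide is cleaved by the development protease. Reactions contain serially diluted compound, 2 μM peptide and 10 μM ATP and run for 1 h at room temperature before 1 h development.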

B-Raf V600E = target: T14, B-Raf V600E (Homo sapiens, UniProt P15056, V600E); test: AlphaScreen kinase assay, B-Raf V600E; details: read-out: IC50, activity toward kinase B-Raf V600E
T14 construct: P4254. pFastBacBD-CDC37 BRAF D437-K722-X, V600E; His6 with pFastBac HT leader (TEV site) (N); made in house; host or cells: Sf9 (baculovirus; chaperone CDC37 co-expressed)
T14 sequence (P15056 with tags, fused parts or gaps V600E): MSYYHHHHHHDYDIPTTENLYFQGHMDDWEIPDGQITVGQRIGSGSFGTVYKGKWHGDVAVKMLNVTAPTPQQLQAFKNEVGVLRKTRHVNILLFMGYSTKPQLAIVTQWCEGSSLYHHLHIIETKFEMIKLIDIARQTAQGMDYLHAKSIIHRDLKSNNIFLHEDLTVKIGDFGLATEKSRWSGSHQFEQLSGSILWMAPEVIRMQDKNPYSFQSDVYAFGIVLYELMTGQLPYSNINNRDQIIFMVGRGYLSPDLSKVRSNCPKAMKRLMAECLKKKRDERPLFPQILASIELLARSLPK

c-Raf-1 = target: T15, c-Raf-1 (Homo sapiens, UniProt P04049); test: AlphaScreen kinase assay, c-Raf-1; details: read-out: IC50, activity toward kinase c-Raf-1
T15 construct: purchased Upstate Biotechnology

Jnk1 = target: T16, Jnk1 (Homo sapiens, UniProt P45983); test: AlphaScreen kinase assay, Jnk1; details: read-out: IC50, activity toward kinase Jnk1
T16 construct: purchased Upstate Biotechnology

Abl = target: T17, Abl (Homo sapiens, UniProt P00519); test: AlphaScreen kinase assay, Abl; details: read-out: activity toward kinase Abl, IC50
T17 construct: P1121. pET-SPEC BI-PTP Abl G227-V515-X; His6 (N); made in house; host or cells: E. coli (PTP1B co-expressed)
T17 sequence (P00519 with tags, fused parts or gaps): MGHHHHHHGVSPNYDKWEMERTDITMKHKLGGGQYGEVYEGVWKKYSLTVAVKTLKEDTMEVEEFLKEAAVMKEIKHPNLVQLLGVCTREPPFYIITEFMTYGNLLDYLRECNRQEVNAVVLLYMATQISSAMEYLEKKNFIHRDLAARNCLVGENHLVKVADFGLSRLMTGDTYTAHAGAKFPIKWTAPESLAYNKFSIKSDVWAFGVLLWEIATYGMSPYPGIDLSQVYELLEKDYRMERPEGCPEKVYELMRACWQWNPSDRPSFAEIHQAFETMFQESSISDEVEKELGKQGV
Summary of the method: as §1

Flt1 = target: T18, Flt1 (Homo sapiens, UniProt P17948); test: AlphaScreen kinase assay, Flt1; details: read-out: IC50, activity toward kinase Flt1
T18 construct: P1826.pETN6 BI-PTP FLT1 M799-D1165-X WT; His6 (N); made in house; host or cells: E. coli (PTP1B co-expressed)
T18 sequence (P17948 with tags, fused parts or gaps): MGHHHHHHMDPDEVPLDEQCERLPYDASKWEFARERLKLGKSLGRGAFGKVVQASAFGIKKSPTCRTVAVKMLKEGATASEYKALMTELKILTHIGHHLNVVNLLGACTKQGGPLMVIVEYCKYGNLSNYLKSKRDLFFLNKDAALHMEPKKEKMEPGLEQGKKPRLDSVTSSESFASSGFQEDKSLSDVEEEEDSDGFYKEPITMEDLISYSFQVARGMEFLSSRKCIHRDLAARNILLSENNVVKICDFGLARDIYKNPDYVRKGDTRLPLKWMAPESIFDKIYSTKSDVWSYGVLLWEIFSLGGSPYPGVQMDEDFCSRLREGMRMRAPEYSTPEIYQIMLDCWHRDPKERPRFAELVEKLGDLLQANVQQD

Zap70 = target: T19, Zap70 (Homo sapiens, UniProt P43403); test: AlphaScreen kinase assay, Zap70; details: read-out: IC50, activity toward kinase Zap70
T19 construct: P1868.pFastBac1 ZAP70 D327-G606 HIS, WT; His7 (HHHHHHH) (C); made in house
T19 sequence (P43403 with tags, fused parts or gaps): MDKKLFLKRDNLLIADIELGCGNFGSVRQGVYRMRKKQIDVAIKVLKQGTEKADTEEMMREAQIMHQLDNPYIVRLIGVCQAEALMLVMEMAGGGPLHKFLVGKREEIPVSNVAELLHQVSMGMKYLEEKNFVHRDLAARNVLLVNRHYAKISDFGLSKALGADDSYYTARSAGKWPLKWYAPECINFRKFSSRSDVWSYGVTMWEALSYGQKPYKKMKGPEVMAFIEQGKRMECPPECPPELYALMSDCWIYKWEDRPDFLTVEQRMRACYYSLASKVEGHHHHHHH
Summary of the method: as §1

Jnk2 = target: T20, Jnk2 (Homo sapiens, UniProt P45984); test: AlphaScreen kinase assay, Jnk2; details: read-out: IC50, activity toward kinase Jnk2
T20 construct: purchased Roche Protein Expression Group (Indianapolis, IN)
Summary of the method: as §1

Pyk2 = target: T21, Pyk2 (Homo sapiens, UniProt Q14289); test: AlphaScreen kinase assay, Pyk2; details: read-out: IC50, activity toward kinase Pyk2
T21 construct: purchased Upstate Biotechnology

Measured: IC50

Cc1cc(C(=O)c2c[nH]c3ncc(-c4cccc(N)c4)cc23)nn1C [Compound P-0117]
≤ 10 µM: Stk6 | Ret | Kit | Met | Kdr | Flt4 | Jnk3

c1cncc(-c2c[nH]c3ncccc23)c1 [Compound P-0023]
≤ 10 µM: Stk6 | MAP2K1 | Kdr

O=C(c1ccccc1F)c1c[nH]c2ncccc12 [Compound P-0158]
≤ 10 µM: Ret | FGFR1 | MAP2K1 | Kdr

COc1ccc(C(=O)c2c[nH]c3ncccc23)c(Cl)c1 [Compound P-0152]
≤ 10 µM: Ret | Src | MAP4K4 | Kit | FGFR1 | MAP2K1 | Fms | Kdr | Btk | Yes | B-Raf V600E

CS(=O)(=O)Nc1ccc(F)c(C(=O)c2c[nH]c3ncc(Br)cc23)c1 [Compound P-0170, N-[3-(5-Bromo-1H-pyrrolo[2,3-b]pyridine-3-carbonyl)-4-fluoro-phenyl]-methanesulfonamide]
≤ 10 µM: FGFR1 | c-Raf-1 | MAP2K1 | Fms | Kdr | B-Raf V600E

Nc1cccc(-c2cnc3[nH]cc(C(=O)c4ccccc4F)c3c2)c1 [Compound P-0624]
≤ 10 µM: Ret | Src | Jnk1 | Kit | FGFR1 | Abl | Flt1 | Zap70 | Kdr | B-Raf V600E | Flt4 | Jnk3

COc1cccc(Cc2c[nH]c3ncc(-c4cccs4)cc23)c1 [Compound P-0142]
≤ 10 µM: Ret | Kit | FGFR1 | Jnk2 | Abl | Kdr | Pyk2 | Flt4

COc1ccc(F)c(C(=O)c2c[nH]c3ncc(-c4cccc(NC(C)=O)c4)cc23)c1 [Compound P-0325]
≤ 10 µM: Ret | Kit | FGFR1 | Flt1 | Met | Fms | Btk | B-Raf V600E | Flt4

O=C(NCc1cccc(Cl)c1)NCc1c[nH]c2ncccc12 [Compound P-0568]
≤ 10 µM: MAP2K1

S=C(NCc1c[nH]c2ncccc12)Nc1cccc(Cl)c1 [Compound P-0337]
≤ 10 µM: MAP2K1 | Flt1 | Kdr

O=C(CCc1c[nH]c2ncccc12)NCc1ccccc1 [Compound P-0331]
≤ 10 µM: MAP2K1

CS(=O)(=O)Nc1cccc(C(=O)c2c[nH]c3ncccc23)c1 [Compound P-0198]
≤ 10 µM: MAP4K4 | FGFR1 | MAP2K1 | Kdr

O=C1NCc2ccccc2N1Cc1c[nH]c2ncccc12 [Compound P-0194]
≤ 10 µM: MAP2K1 | Flt1 | Kdr
